Key:
[1] = test system: indicator oligo SEQ ID NO: 12 (mixed sequence) versus unlabeled competitor dsDNA; assay: ECL competitive assay with 12-base duplex competitor oligos; format: binding; details: competitor having only one A/T base pair; 0.008 to 8.33 μM competitor
Protocol: Three 12-base duplex competitor oligos, containing 1-, 5-, and 8-base stretches of A/T's flanked by G/C sequences, were tested as competitors, using distamycin as the binding ligand and SEQ ID NO: 12 (mixed sequence) as the indicator oligo. The indicator pair was labeled with a 5′ ruthenium chelate on one strand and a 3′biotin on the complementary strand, as described above and in Example 14.
Distamycin was premixed at […] with 0.25 nM indicator oligo. The assay was conducted as described in Example 14, using the Igen Origen® apparatus. Ligand binding, which stabilizes the duplexed form of the indicator DNA, results in an increase in the ECL signal. Unlabeled competitor dsDNA (no ruthenium or biotin label) was then added at concentrations ranging from 0.008 to 8.33 μM, and the decrease in the signal was monitored, as shown in FIG. 13.
An indicator pair of oligonucleotides, having the sequence SEQ ID NO: 12 and complement, were labeled with a 5′ ruthenium (bipy) chelate on one strand, as described in U.S. Pat. No. 5,635,347 and references cited therein, and with a 3′ biotin on the complementary strand. […] The biotinylated strand of DNA was captured on the bead surface, and any ruthenium captured by the streptavidin via drug-stabilized hybridization of the indicator duplex was quantified with the IGEN Origen™ analyzer. […]

[2] = test system: F/Q indicator duplex of SEQ ID NO: 75 and SEQ ID NO: 76; assay: Kinetic strand displacement assay (fluorescence quenching); format: binding
Description: This version of the assay is based on the displacement of a shorter strand within an indicator duplex by a longer strand. […] Again, a duplex of first and second sequences, as described above, is used, but in this assay, the strands differ in length, thus creating a single stranded overhang region. In a fluorescence quenching assay format, for example, the “F” strand is generally longer than the “Q” strand. In most cases, a minimum overhang region of about 4-20 nucleotides is effective to initiate strand displacement. Because a longer region will increase the rate of displacement, and it is generally desirable in the assay to reduce the rate of displacement, so as to facilitate measurement, this length of 4-20 nucleotides is generally preferred. A length of 5-7 nucleotides is particularly preferred.
The first and second strands are allowed to form a duplex in the absence of the ligand. In the present example, the “F” and “Q” groups are thus in proximity, giving a minimum level (when Q is a quenching group) of fluorescence. The displacing strand is added, and the rate of displacement, as indicated by an increase (or other change) in fluorescence over time, is observed (see FIG. 2). The experiment is then repeated in the presence of increasing amounts of ligand. A strongly binding ligand will stabilize the initial duplex and thus slow the rate of displacement. It is also expected that a ligand binding closer to the overhang site will also have a greater effect on inhibiting displacement.
The displacing strand, having SEQ ID NO: 77 (Table VI), is added, and the increase in fluorescence is observed over time. […] About 0.08 μM drug was effective to detectably slow the rate of displacement, and at 1.25-2.5 μM, the increase at 2 hrs was reduced to about 40%.
A mixture was formed of 60 nM of a fluorescein labeled 28-nucleotide strand having SEQ ID NO: 75 (Table VI) and 90 nM of a Dabcyl™-labeled 21-nucleotide quenching strand (SEQ ID NO: 76) in a buffer containing 20 mM HEPES, pH 7.5, 0.1 mM EDTA, and 30 mM NaCl. The control experiment contained no added drug; for subsequent experiment, increasing amounts of netropsin were added. To start the displacement reaction, the displacing strand (SEQ ID NO: 77) was added at concentrations of 35 nM to 60 nM. The fluorescence of the system was then monitored every 5 minutes for 90 to 120 minutes.
The initial rate of the displacement reaction was calculated from plots of fluorescence vs. time as the slope of the fluorescence curve from 0 to 60 minutes.
Additional experiments were carried out in which specific, unlabeled DNA competitor duplexes, whose sequences are shown in Table VII, were added to the assay mixture.

Row | SMILES | competition by competitor oligonucleotide (FIG. 13) [1] | effect of unlabeled competitor duplex on rate of displacement in presence of drug (FIG. 16) ([2]; A/T rich competitor duplex SEQ ID NO: 78) | increase in fluorescence at 2 hrs ([2]; at 1.25-2.5 μM netropsin, about 175% in absence of drug) | drug concentration effective to detectably slow the rate of displacement (FIG. 14) ([2]; displacing strand SEQ ID NO: 77) | drug concentration giving notable decrease in initial rate of displacement (FIG. 15) ([2]; initial rate = slope 0 to 60 minutes)
1 | Cn1cc(NC(=O)c2cc(NC(=O)c3cc(NC=O)cn3C)cn2C)cc1C(=O)NCCC(=N)N [Distamycin, distamycin] | little competition was observed |  |  |  | 
2 | Cn1cc(NC(=O)c2cc(NC(=O)CN=C(N)N)cn2C)cc1C(=O)NCCC(=N)N [Netropsin, netropsin] |  | rate of displacement is increased by increasing amounts of the A/T rich competitor duplex | about 40% | About 0.08 μM | about 0.08 μM

— patent publication US6355428B1, “Nucleic acid ligand interaction assays” (Genelabs Technologies, Inc., priority 1998, dated 2002)
